# Reference: PMC8072580, “Predicting Pharmacokinetic Properties of Potential Anticancer Agents via Their Chromatographic Behavior on Different Reversed Phase Materials” (International Journal of Molecular Sciences, 2021)
# Assays:
# [1] = Micellar liquid chromatography (MLC), ODS-2 column, Brij 35 effluent: chromatographic lipophilicity; type: physicochemical; details: pH 7.4, ODS-2 column, 25 °C
# Text: There are several theories that describe the effect of the concentration of the surfactant in the effluent on the retention of the solute in MLC [23]. The following Foley’s equation is best known in lipophilicity studies:(2) 1/k=1/km+KAM/km[M] where [M] is the total concentration of the surfactant in the mobile phase minus CMC; KAM is the constant that describes solute-micelle binding; and km is the solute retention parameter at the micellar concentration of zero, i.e., when the concentration of the surfactant monomer is equal to CMC. The KAM and km parameters can be evaluated from the slope and intercept of the experimental 1/k vs. [M] relationships.
# Equation (2) describes a linear dependence between decreasing retention and increasing micelle concentration. This equation is valid for aqueous solutions of surfactant or mobile phases with the same concentrations of the organic modifier. The micellar retention parameter, log km, is considered analogous to the log kw parameter evaluated in RPLC. According to the information presented above, this parameter is considered to be a lipophilicity descriptor, and Equation (2) is a simple way to indirectly determine the lipophilic properties of compounds. It is postulated that retention in micellar chromatography depends on hydrophobic (lipophilic), electronic, and steric features of the compounds in a similar way as has been noted concerning pharmacokinetic phenomena. The additional similarity results from the fact that the phospholipids, cholesterol, fatty acids, and triglycerides included in the extracellular and intracellular fluids also form micelles with proteins.
# In our investigations, the micellar retention factors were used to calculate the log km parameters using Equation (2) (Table 2). For all of the compounds 1-19, the relationships of 1/k vs. [M] were obtained with very good linearity, confirming that Foley’s equation correctly describes the effect of the concentration of the surfactant in the effluent on the retention of the solute. In our studies, the micellar log km parameters for three pharmacologically active sets of compounds 1-6, 7-14, and 15-19 and the log k factors for solutes 15-19 obtained on IAM and end-capped ODS stationary phases were determined experimentally. All these retention factors, together with the log kw values for compounds 1-14 obtained in our earlier investigations on IAM and end-capped ODS stationary phases, were used as lipophilicity descriptors in the QSARs methodology to predict the pharmacokinetic descriptors of the compounds that were tested.
# Shimadzu Vp (Shimadzu, Izabelin, Polska) liquid chromatographic system was used in HPLC measurements. It was equipped with an LC 10AT pump, SPD 10A UV–Vis detector, SCL 10A system controller, CTO-10 AS chromatographic oven, and Rheodyne injector valve with a 20 μL loop. As the stationary phases, 3 different revered-phase materials were applied: Spherisorb ODS-2 column, 125 × 4 mm i.d., 5 μm (Merck, Lublin, Poland), Regis IAM.PC.DD2 column, 100 × 4.6 mm i.d., 10 μm (Morton Grove, Illinois, USA), and Purosphere RP-18e column, 125 × 4 mm i.d., 5 μm (Merck, Lublin, Poland).
# In the MLC technique with an ODS-2 column, buffered Brij 35 mixtures (0.15; 0.125, 0.10, and 0.075 mol/L) with 7% (v/v) addition of isopropanol were used as mobile phases. The buffer was prepared from 0.01 mol/L solutions of Na2HPO4 and citric acid, and the pH 7.4 value was fixed before mixing with an organic modifier. The flow rate was 1 mL/min. Buffered acetonitrile mixtures were used as effluents with the IAM column. Acetonitrile concentration, expressed as a volume fraction, was changed in the range of 0.2–0.5, with the constant step of 0.1. The flow rate was 1.3 mL/min. Acetonitrile concentration was changed in the range of 0.3–0.6 with the RP-18e column, with the constant step of 0.1 and flow rate of 0.1 mL/min. As solutes tested there were used 19 newly designed structurally related compounds. […]
# [2] = parameters: method as in PMID 31864156; details: IAM.PC.DD2 column, buffered acetonitrile; cited from earlier work
# [3] = parameters: method as in PMID 31864156; details: end-capped ODS column, aqueous acetonitrile; cited from earlier work
# [4] = system: human cancer cells; parameters: method as in PMID 31864156, PMID 16545495, PMID 25528370; details: cited from earlier work
# [5] = system: Danio rerio; parameters: method as in PMID 33390035; details: cited from earlier work
smiles,measurement,setting,value
Cc1ccccc1N1CCn2c1nnc(C(F)(F)F)c2=O [Compound 8],k (MLC retention factor),"[1]; 0.075 M Brij 35, 7% isopropanol",6.50
same,k (MLC retention factor),"[1]; 0.1 M Brij 35, 7% isopropanol",5.97
same,k (MLC retention factor),"[1]; 0.125 M Brij 35, 7% isopropanol",5.52
same,k (MLC retention factor),"[1]; 0.15 M Brij 35, 7% isopropanol",5.28
same,"log kw,IAM",[2],0.76 [19]
same,"log kw,ODS",[3],1.81 [19]
same,antiproliferative effects in cancer cells compared with normal cells,[4],clearly higher antiproliferative effects in cancer cells than in normal cells
same,safety for early life stages of Danio rerio compared with pemetrexed,[5],safer for the early life stages of Danio rerio than pemetrexed
